Legend:
Assay in all cases: IA-DTB cysteine engagement
Format in all cases: binding
Conditions in all cases: 22Rv1 cells, 20 μM probe, 1 h, relative to DMSO
HARS2_C173 = target: T1, HARS2_C173 (Homo sapiens, UniProt P49590)
T1 construct: endogenous in cells; host or cells: 22Rv1
T1 sequence (P49590 34-506): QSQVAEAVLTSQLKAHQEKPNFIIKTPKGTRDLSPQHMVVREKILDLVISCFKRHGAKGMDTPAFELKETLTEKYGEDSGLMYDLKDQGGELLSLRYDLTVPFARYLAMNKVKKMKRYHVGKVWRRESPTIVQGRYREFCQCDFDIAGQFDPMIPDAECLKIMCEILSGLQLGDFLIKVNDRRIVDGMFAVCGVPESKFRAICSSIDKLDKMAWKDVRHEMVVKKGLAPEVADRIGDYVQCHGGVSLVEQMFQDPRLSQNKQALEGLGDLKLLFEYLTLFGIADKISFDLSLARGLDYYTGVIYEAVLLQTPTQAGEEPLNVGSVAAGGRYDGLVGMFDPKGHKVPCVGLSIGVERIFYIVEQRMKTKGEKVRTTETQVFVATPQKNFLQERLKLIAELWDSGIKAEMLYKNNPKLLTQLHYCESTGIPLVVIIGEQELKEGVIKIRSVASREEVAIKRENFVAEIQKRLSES
Outline: (§1)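 Cells were treated in situ with electrophilic probes, then lysed, and the lysates (2 mg/mL protein) were labeled with IA-DTB for 1 h at ambient temperature. After reduction, alkylation and trypsin digestion, labeled peptides were streptavidin-enriched, TMT-labeled and fractionated. Engagement ratios are probe vs DMSO reporter intensities, averaged across replicates.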

PDP1_C149 = target: T2, PDP1_C149 (Homo sapiens, UniProt Q9P0J1)
T2 construct: endogenous in cells; host or cells: 22Rv1
T2 sequence (Q9P0J1 72-537): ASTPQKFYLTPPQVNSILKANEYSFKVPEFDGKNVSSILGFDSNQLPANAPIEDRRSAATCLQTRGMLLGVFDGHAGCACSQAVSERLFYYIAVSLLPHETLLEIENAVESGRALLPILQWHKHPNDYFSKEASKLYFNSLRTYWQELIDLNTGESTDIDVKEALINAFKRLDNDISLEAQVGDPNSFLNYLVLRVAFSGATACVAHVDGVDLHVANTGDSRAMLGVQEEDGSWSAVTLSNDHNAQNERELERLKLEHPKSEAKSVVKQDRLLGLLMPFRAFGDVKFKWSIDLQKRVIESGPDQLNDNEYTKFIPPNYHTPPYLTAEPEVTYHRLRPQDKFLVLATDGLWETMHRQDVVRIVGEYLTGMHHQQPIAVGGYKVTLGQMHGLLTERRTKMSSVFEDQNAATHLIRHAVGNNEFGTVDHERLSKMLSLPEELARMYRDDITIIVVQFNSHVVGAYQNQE
Outline: as §1

ZNF346_C68 = target: T3, ZNF346_C68 (Homo sapiens, UniProt Q9UL40)
T3 construct: endogenous in cells; host or cells: 22Rv1
T3 sequence (Q9UL40 1-294): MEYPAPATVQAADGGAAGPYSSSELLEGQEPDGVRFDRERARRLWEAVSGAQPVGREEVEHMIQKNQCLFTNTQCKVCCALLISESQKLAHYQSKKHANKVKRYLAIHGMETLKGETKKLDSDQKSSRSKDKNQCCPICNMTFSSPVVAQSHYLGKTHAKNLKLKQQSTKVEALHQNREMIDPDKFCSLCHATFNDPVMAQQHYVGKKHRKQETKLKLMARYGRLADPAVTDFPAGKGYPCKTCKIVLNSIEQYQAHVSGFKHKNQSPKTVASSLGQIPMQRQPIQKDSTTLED
Outline: as §1

Structure (SMILES)	% engagement HARS2_C173 (HARS2_C173) [%]	% engagement PDP1_C149 (PDP1_C149) [%]	% engagement ZNF346_C68 (ZNF346_C68) [%]
C=CC(=O)N1C[C@H](c2ccc(Br)cc2)[C@H]1C(=O)Nc1cccc2cccnc12 [MY-3A, (2S,3S)-1-acryloyl-3-(4-bromophenyl)-N-(quinolin-8-yl)azetidine-2-carboxamide]	35.25	19.25	14
C=CC(=O)N1C[C@@H](c2ccc(Br)cc2)[C@H]1C(=O)Nc1cccc2cccnc12 [MY-1A, (2S,3R)-1-acryloyl-3-(4-bromophenyl)-N-(quinolin-8-yl)azetidine-2-carboxamide]	84.75	67	95.5
C=CC(=O)N1C[C@H](c2ccc(Br)cc2)[C@@H]1C(=O)Nc1cccc2cccnc12 [MY-1B, (2R,3S)-1-acryloyl-3-(4-bromophenyl)-N-(quinolin-8-yl)azetidine-2-carboxamide]	63.75	37.25	37
C=CC(=O)N1C[C@H](c2ccc(Br)cc2)[C@H]1C(=O)Nc1cccc2cccnc12 [MY-3B, (2S,3S)-1-acryloyl-3-(4-bromophenyl)-N-(quinolin-8-yl)azetidine-2-carboxamide]	35.75	37.25	45.25
